{"source": "patent US20200384124A1", "about": "“VECTOR FOR PHARMACOLOGICALLY ACTIVE MATER-INSOLUBLE MOLECULES, AND PROCESS OF PREPARING SAME” (priority 2017, published 2020)", "key": {"[1]": {"tested_on": "microtubular network in U-87-MG and HMEC-1 cells", "assay": "Indirect immunofluorescence of tubulin, comparison with PTX (Example 24)", "type": "cell-based, human", "details": "10, 50 and 100 nM, 6 h of treatment", "description": "The U-87-MG and HMEC-1 cells are seeded on Lab-Tek® culture chambers (Nunc). […] After 6 h of treatment, the medium is replaced by a solution of ice-cold methanol making it possible to fix and permeabilize the cells. […] The labeling of the nucleus is carried out with a solution of DAPI or 4,6-diamidino-2-phenylindole (0.25 μg/ml; Sigma) for 2 min. The blade is finally mounted with Prolong® (Invitrogen) antifading. The observation is carried out with an epifluorescence microscope (Leica DM-IRBE) coupled with a digital camera (Princeton Instruments; CCD camera coolsnap FX)."}, "SK-N-SH cells": {"tested_on": "SK-N-SH cells", "assay": "MTT cytotoxicity test of PTX and NPC2-PTX (2D)", "type": "cell-based", "details": "Homo sapiens, 72 h", "description": "(§1) The volume of seeding and treatment is maintained at 150 μL per well and each condition is carried out with a conventional incubation at 37° C. A cell viability test is carried out by an MTT test after 72 h of treatment. This test uses as reagent 3-(4,5-Dimethylthiazol-2-yl)-2,5-Diphenyltetrazolium Bromide (MTT), which is converted into formazan (crystal violet) by living cells. The latter absorbent at the wavelength of 600 nm is detectable by an absorbance measurement.\n(§2) As soon as the formazan crystals are visible in the cells under a light field microscope, the medium is replaced by 150 μl of dimethylsulfoxide (DMSO). The cells are then lysed, the formazan crystals dissolved, and the absorbance is measured with a Multiskan spectrophotometer (Ascent, Labtec Systems with a filter at 600 nm.\n(§3) The percentage of viability is obtained by comparing the absorbance value of the treated cells with the absorbance value of the untreated control cells, which is considered as a reference and equivalent to 100% of viability. The standard deviation is calculated from 3 independent experiments."}, "HMEC-1 cells": {"tested_on": "HMEC-1 cells", "assay": "MTT cytotoxicity test of PTX and NPC2-PTX (2D)", "type": "cell-based", "details": "Homo sapiens, HMEC-1, 72 h", "description": "as §1, §2, §3"}, "U-87 MG spheroids [2]": {"tested_on": "U-87 MG spheroids", "assay": "3D culture spheroid size by optical microscopy", "type": "cell-based, human", "description": "Spheroids (cells in 3D culture) help to better represent the tumor environment. They are composed of necrotic cells in their center and proliferating cells in the periphery. […] The cells are maintained at 37° C. and 5% of CO2 and 10 μl of fresh medium are added every two days to all the wells (controls and treated). […] Before treatment and then every two days, the spheroids are observed under an optical microscope coupled to a camera (Nikon ECLIPSE TS100), at magnification*4.;"}, "U-87 MG cells": {"tested_on": "U-87 MG cells", "assay": "MTT cytotoxicity test of PTX and NPC2-PTX (2D)", "type": "cell-based, human", "description": "as §1, with “A cell viability test is carried out by an MTT test after 72 h of treatment.” left out\nas §2, §3"}, "U-87 MG spheroids [3]": {"tested_on": "U-87 MG spheroids", "assay": "3D culture spheroid viability by Alamar Blue test", "type": "cell-based, human", "details": "2.8 times the IC50, Alamar Blue", "description": "Spheroids (cells in 3D culture) help to better represent the tumor environment. They are composed of necrotic cells in their center and proliferating cells in the periphery. […] The cells are maintained at 37° C. and 5% of CO2 and 10 μl of fresh medium are added every two days to all the wells (controls and treated). […] This measurement is done in one step and uses a reagent based on resazurin, which is reduced by living cells. The reduced compound (=resofurin) is detectable by fluorescence (λex=584 nm and λem=620 nm) and the signal measured is proportional to the number of living cells. Once the above treatment has been set up, 10 μL of Alamar Blue are added to each well 7 days or 14 days after treatment and the cells are incubated 12 h before the fluorescence measurement. The data are obtained by reading the fluorescence with POLARstar Omega (BMG LABETCH) after excitation at 584 nm and reading the emission at 620 nm."}}}
{"smiles": "CC(=O)O[C@H]1C(=O)[C@@]2(C)[C@H]([C@H](OC(=O)c3ccccc3)[C@]3(O)C[C@H](OC(=O)[C@H](O)[C@@H](NC(=O)c4ccccc4)c4ccccc4)C(C)=C1C3(C)C)[C@]1(OC(C)=O)CO[C@@H]1C[C@@H]2O", "note": "[PTX, paclitaxel]", "values": [{"measurement": "effects on microtubular network and cell shape", "setting": "[1]", "value": "the microtubular network is disturbed"}, {"measurement": "IC50", "setting": "SK-N-SH cells", "value": "40.5 ± 7.8", "unit": "nM"}, {"measurement": "IC50", "setting": "HMEC-1 cells", "value": "5.7 ± 2", "unit": "nM"}, {"measurement": "diameter of the spheroid at day 14", "setting": "U-87 MG spheroids [2]; 2.8 times IC50 (PTX 25 nM, NPC2-PTX 70 nM)", "value": "757+/−22 μm"}, {"measurement": "diameter of the spheroid at day 14", "setting": "U-87 MG spheroids [2]; 4 times the IC50 (PTX 40 nM, NPC2-PTX 100 nM)", "value": "389+/−33 μm"}, {"measurement": "diameter of the spheroid at day 14", "setting": "U-87 MG spheroids [2]; IC50 calculated in 2D (PTX 9 nM, NPC2-PTX 25 nM)", "value": "800+/−11 μm"}, {"measurement": "inhibition of cell viability in 2D", "setting": "U-87 MG cells; 2.8 times the IC50", "value": 70, "unit": "%"}, {"measurement": "IC50", "setting": "U-87 MG cells; Homo sapiens, U-87 MG, 72 h", "value": "9.2 ± 1.2", "unit": "nM"}, {"measurement": "decrease / inhibition of cell viability in 3D", "setting": "U-87 MG spheroids [3]", "value": 10, "unit": "%"}]}
